Laboratory results as given in PubChem BioAssay AID1963849 (Molecular Pharmacology Branch, DTP, NCI, 2024).

Tested on: 299254-011-R-J1-PDC complex spheroid viability
Assay: Anticancer human tumor 299254-011-R-J1-PDC patient-derived melanoma cell line growth inhibition [POLQ]
Details: for IC50: curve of first compound; for viability, T/C: stronger effect = lower value
Outline: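 Three-cell-type spheroids modelling solid tumor plus stroma served as the readout system; POL inhibitors were tested individually and in combination, concentration ranges set by clinical Cmax where known.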

[1] = second compound 0.0316 µM, first compound 0.0316 µM
[2] = second compound 0.0316 µM, first compound 0.1 µM
[3] = second compound 0.0316 µM, first compound 0.316 µM
[4] = second compound 0.0316 µM, first compound 1 µM
[5] = second compound 0.1 µM, first compound 0.0316 µM
[6] = second compound 0.1 µM, first compound 0.1 µM
[7] = second compound 0.1 µM, first compound 0.316 µM
[8] = second compound 0.1 µM, first compound 1 µM
[9] = second compound 0.316 µM, first compound 0.0316 µM
[10] = second compound 0.316 µM, first compound 0.1 µM
[11] = second compound 0.316 µM, first compound 0.316 µM
[12] = second compound 0.316 µM, first compound 1 µM
[13] = second compound 1 µM, first compound 0.0316 µM
[14] = second compound 1 µM, first compound 0.1 µM
[15] = second compound 1 µM, first compound 0.316 µM
[16] = second compound 1 µM, first compound 1 µM
[17] = second compound 3.16 µM, first compound 0.0316 µM
[18] = second compound 3.16 µM, first compound 0.1 µM
[19] = second compound 3.16 µM, first compound 0.316 µM
[20] = second compound 3.16 µM, first compound 1 µM
[21] = second compound 10 µM, first compound 0.0316 µM
[22] = second compound 10 µM, first compound 0.1 µM
[23] = second compound 10 µM, first compound 0.316 µM
[24] = second compound 10 µM, first compound 1 µM
[25] = second compound 0.0316 µM, first compound 3.16 µM
[26] = second compound 0.0316 µM, first compound 10 µM
[27] = second compound 0.1 µM, first compound 3.16 µM
[28] = second compound 0.1 µM, first compound 10 µM
[29] = second compound 0.316 µM, first compound 3.16 µM
[30] = second compound 0.316 µM, first compound 10 µM
[31] = second compound 1 µM, first compound 3.16 µM
[32] = second compound 1 µM, first compound 10 µM
[33] = second compound 3.16 µM, first compound 3.16 µM
[34] = second compound 3.16 µM, first compound 10 µM
[35] = second compound 10 µM, first compound 3.16 µM
[36] = second compound 10 µM, first compound 10 µM
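Further: spheroids exposed to drugs for one week before measurement.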
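Wherever viability, T/C is given: percent viability relative to DMSO vehicle control taken as 100%.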

`COc1cccc(OCCCN)c1-c1cc(Nc2cnc(C#N)cn2)n[nH]1` + Nc1ccc(C#CCN(C(=O)Cc2ncc(C(F)(F)F)cc2C(F)(F)F)c2ccc(F)cc2)nn1 was tested, and the IC50 (second compound 0.0316 µM) was 147 nM, the IC50 (second compound 0.1 µM) was 97.4 nM and the IC50 (second compound 0.316 µM) was 96.8 nM. The IC50 (second compound 1 µM) was 79.5 nM, the IC50 (second compound 3.16 µM) was 70.6 nM and the IC50 (second compound 10 µM) was 29.4 nM. The viability, T/C (second compound 0.0316 µM, first compound 0.00316 µM) was 96.7%, the viability, T/C (second compound 0.0316 µM, first compound 0.01 µM) was 129% and the viability, T/C [1] was 78.6%. For the same molecule, the viability, T/C [2] was 61.2%, the viability, T/C [3] was 40.2% and the viability, T/C [4] was 42.6%. The viability, T/C (second compound 0.1 µM, first compound 0.00316 µM) was 106%, the viability, T/C (second compound 0.1 µM, first compound 0.01 µM) was 107% and the viability, T/C [5] was 84.9%. The viability, T/C [6] was 49.2%, the viability, T/C [7] was 51.6% and the viability, T/C [8] was 42.3%. The viability, T/C (second compound 0.316 µM, first compound 0.00316 µM) was 111%, the viability, T/C (second compound 0.316 µM, first compound 0.01 µM) was 97.5% and the viability, T/C [9] was 67%. The viability, T/C [10] was 51.8%, the viability, T/C [11] was 40% and the viability, T/C [12] was 35.5%. It also gave a viability, T/C (second compound 1 µM, first compound 0.00316 µM) of 98.3%, a viability, T/C (second compound 1 µM, first compound 0.01 µM) of 111% and a viability, T/C [13] of 72.2%. It also gave a viability, T/C [14] of 51.6%, a viability, T/C [15] of 41.8% and a viability, T/C [16] of 37.2%. For the same molecule, the viability, T/C (second compound 3.16 µM, first compound 0.00316 µM) was 115%, the viability, T/C (second compound 3.16 µM, first compound 0.01 µM) was 79.6% and the viability, T/C [17] was 63.9%. It also gave a viability, T/C [18] of 41.7%, a viability, T/C [19] of 37% and a viability, T/C [20] of 46.6%. It also gave a viability, T/C (second compound 10 µM, first compound 0.00316 µM) of 121%, a viability, T/C (second compound 10 µM, first compound 0.01 µM) of 75.1% and a viability, T/C [21] of 48.9%. It also gave a viability, T/C [22] of 38%, a viability, T/C [23] of 32.3% and a viability, T/C [24] of 35.7%.

Work on `Nc1ccn(C2OC(CO)C(O)C2(F)F)c(=O)n1` (stereo unspecified) + Nc1ccc(C#CCN(C(=O)Cc2ncc(C(F)(F)F)cc2C(F)(F)F)c2ccc(F)cc2)nn1 yielded an IC50 (second compound 0.0316 µM) of 123 nM, an IC50 (second compound 0.1 µM) of 351 nM and an IC50 (second compound 0.316 µM) of 82.7 nM. The IC50 (second compound 1 µM) was 252 nM, the IC50 (second compound 3.16 µM) was 144 nM and the IC50 (second compound 10 µM) was 277 nM. The viability, T/C [1] was 71.9%, the viability, T/C [2] was 54.2% and the viability, T/C [3] was 33.7%. For the same molecule, the viability, T/C [4] was 50.7%, the viability, T/C [25] was 51.7% and the viability, T/C [26] was 47.1%. The viability, T/C [5] was 60.7%, the viability, T/C [6] was 54.7% and the viability, T/C [7] was 49.6%. The viability, T/C [8] was 48.5%, the viability, T/C [27] was 46% and the viability, T/C [28] was 46.9%. For the same molecule, the viability, T/C [9] was 90%, the viability, T/C [10] was 41.4% and the viability, T/C [11] was 49.6%. It also gave a viability, T/C [12] of 37.7%, a viability, T/C [29] of 43.7% and a viability, T/C [30] of 38.2%. For the same molecule, the viability, T/C [13] was 86.2%, the viability, T/C [14] was 69.2% and the viability, T/C [15] was 45.1%. The viability, T/C [16] was 45.7%, the viability, T/C [31] was 48% and the viability, T/C [32] was 36.4%. The viability, T/C [17] was 73.7%, the viability, T/C [18] was 51.5% and the viability, T/C [19] was 47%. For the same molecule, the viability, T/C [20] was 42.1%, the viability, T/C [33] was 37.7% and the viability, T/C [34] was 43.5%. The viability, T/C [21] was 80%, the viability, T/C [22] was 91.5% and the viability, T/C [23] was 45.4%. It also gave a viability, T/C [24] of 36.9%, a viability, T/C [35] of 39.7% and a viability, T/C [36] of 45%.

`O=C(c1cc(Cc2n[nH]c(=O)c3ccccc23)ccc1F)N1CCN(C(=O)C2CC2)CC1` + Nc1ccc(C#CCN(C(=O)Cc2ncc(C(F)(F)F)cc2C(F)(F)F)c2ccc(F)cc2)nn1 was tested, and the IC50 (second compound 0.0316 µM) was over 10000 nM, the IC50 (second compound 0.1 µM) was over 10000 nM and the IC50 (second compound 0.316 µM) was over 10000 nM. For the same molecule, the IC50 (second compound 1 µM) was over 10000 nM, the IC50 (second compound 3.16 µM) was over 10000 nM and the IC50 (second compound 10 µM) was over 10000 nM. For the same molecule, the viability, T/C [1] was 120%, the viability, T/C [2] was 96.6% and the viability, T/C [3] was 92.4%. The viability, T/C [4] was 91.7%, the viability, T/C [25] was 107% and the viability, T/C [26] was 95.6%. For the same molecule, the viability, T/C [5] was 94%, the viability, T/C [6] was 105% and the viability, T/C [7] was 97.2%. For the same molecule, the viability, T/C [8] was 95.3%, the viability, T/C [27] was 112% and the viability, T/C [28] was 88%. The viability, T/C [9] was 111%, the viability, T/C [10] was 122% and the viability, T/C [11] was 106%. The viability, T/C [12] was 105%, the viability, T/C [29] was 97.2% and the viability, T/C [30] was 84.6%. It also gave a viability, T/C [13] of 105%, a viability, T/C [14] of 95.4% and a viability, T/C [15] of 100%. It also gave a viability, T/C [16] of 110%, a viability, T/C [31] of 109% and a viability, T/C [32] of 85.3%. It also gave a viability, T/C [17] of 103%, a viability, T/C [18] of 96.7% and a viability, T/C [19] of 94.8%. The viability, T/C [20] was 113%, the viability, T/C [33] was 93.8% and the viability, T/C [34] was 71%. For the same molecule, the viability, T/C [21] was 89.1%, the viability, T/C [22] was 98.5% and the viability, T/C [23] was 113%. The viability, T/C [24] was 88.8%, the viability, T/C [35] was 99.4% and the viability, T/C [36] was 63.5%.
